From PubChem BioAssay AID1918999 (Molecular Pharmacology Branch, DTP, NCI, 2023) come the findings set out here.

For this assay, the system named is 556581-035-R-J1-PDC complex spheroid growth. Kind of assay: Anticancer human tumor 556581-035-R-J1-PDC patient-derived ovarian carcinoma cell line growth inhibition [AhR]. The following applies: for viability, T/C: stronger effect = lower value. In short, it runs like this:
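Spheroids combined tumor cells with HUVEC endothelial cells and human MSCs as stroma. AhR antagonists were paired with standard or investigational drugs, each dosed in half-log steps down from near clinical Cmax, or from 10 microM where Cmax was unknown.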

Where [1] appears, read: curve of first compound, second compound 0.1 µM.
Setting [2] is: curve of first compound, second compound 0.316 µM.
Where [3] appears, read: curve of first compound, second compound 1 µM.
The mark [4] stands for this setting: curve of first compound, second compound 3.16 µM.
[5] abbreviates: curve of first compound, second compound 10 µM.
Where [6] appears, read: second compound 0.1 µM, first compound 0.0316 µM.
Where [7] appears, read: second compound 0.1 µM, first compound 0.1 µM.
The mark [8] stands for this setting: second compound 0.1 µM, first compound 0.316 µM.
The mark [9] stands for this setting: second compound 0.1 µM, first compound 1 µM.
The mark [10] stands for this setting: second compound 0.1 µM, first compound 3.16 µM.
Setting [11] is: second compound 0.1 µM, first compound 10 µM.
Setting [12] is: second compound 0.316 µM, first compound 0.0316 µM.
Where [13] appears, read: second compound 0.316 µM, first compound 0.1 µM.
Setting [14] is: second compound 0.316 µM, first compound 0.316 µM.
[15] abbreviates: second compound 0.316 µM, first compound 1 µM.
The mark [16] stands for this setting: second compound 0.316 µM, first compound 3.16 µM.
Where [17] appears, read: second compound 0.316 µM, first compound 10 µM.
Setting [18] is: second compound 1 µM, first compound 0.0316 µM.
[19] abbreviates: second compound 1 µM, first compound 0.1 µM.
The mark [20] stands for this setting: second compound 1 µM, first compound 0.316 µM.
The mark [21] stands for this setting: second compound 1 µM, first compound 1 µM.
Where [22] appears, read: second compound 1 µM, first compound 3.16 µM.
Setting [23] is: second compound 1 µM, first compound 10 µM.
Where [24] appears, read: second compound 3.16 µM, first compound 0.0316 µM.
Where [25] appears, read: second compound 3.16 µM, first compound 0.1 µM.
Where [26] appears, read: second compound 3.16 µM, first compound 0.316 µM.
Setting [27] is: second compound 3.16 µM, first compound 1 µM.
Setting [28] is: second compound 3.16 µM, first compound 3.16 µM.
The mark [29] stands for this setting: second compound 3.16 µM, first compound 10 µM.
Setting [30] is: second compound 10 µM, first compound 0.0316 µM.
[31] abbreviates: second compound 10 µM, first compound 0.1 µM.
The mark [32] stands for this setting: second compound 10 µM, first compound 0.316 µM.
The mark [33] stands for this setting: second compound 10 µM, first compound 1 µM.
The mark [34] stands for this setting: second compound 10 µM, first compound 3.16 µM.
The mark [35] stands for this setting: second compound 10 µM, first compound 10 µM.

Usually IC50 stands for the concentration that gives 50% inhibition. Usually viability, T/C stands for the ratio of treated to control.

Each structure is given as a SMILES string. Where “and” joins values, the source holds several entries; their conditions need not be identical. Equal entries are not always repeated.
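For viability, T/C in this document: compound exposure lasted 7 days; 100% = DMSO vehicle control growth.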

In the case of `O=C(C=Cc1cccc(S(=O)(=O)Nc2ccccc2)c1)NO` + Cc1ccccc1N=Nc1ccc(NC(=O)c2ccnn2C)c(C)c1, the IC50 reads like this: under setting [1], 1200 nM; under setting [2], 1340 nM; under setting [3], 1280 nM; under setting [4], 1130 nM; under setting [5], 1540 nM. In addition, the viability, T/C by setting is: under setting [6], 99.8%; under setting [7], 113%; under setting [8], 87%; under setting [9], 50.8%; under setting [10], 28.4%; under setting [11], 4.1%. The viability, T/C is 106% under setting [12]; 92.7% under setting [13]; 91.9% under setting [14]; 57.1% under setting [15]; 24.9% under setting [16]; 4.53% under setting [17]. Also, the viability, T/C reads like this: under setting [18], 93.9%; under setting [19], 107%; under setting [20], 91.7%; under setting [21], 53.2%; under setting [22], 27.7%; under setting [23], 6.45%. Further, the viability, T/C is, setting by setting: under setting [24], 96.4%; under setting [25], 90.5%; under setting [26], 77.7%; under setting [27], 51.4%; under setting [28], 27.1%; under setting [29], 5.72%. The viability, T/C is 86.2% under setting [30]; 83.2% under setting [31]; 79.8% under setting [32]; 61% under setting [33]; 30.9% under setting [34]; 7.96% under setting [35].
Consider `COc1cccc2c1C(=O)c1c(O)c3c(c(O)c1C2=O)CC(O)(C(=O)CO)CC3OC1CC(N)C(O)C(C)O1` (centres undefined) + Cc1cncc(-c2nc(NCCc3c[nH]c4ccccc34)c3ncn(C(C)C)c3n2)c1, for which the half-maximal inhibitory concentration (IC50) reads like this: under setting [1], 382 nM; under setting [2], 380 nM; under setting [3], 403 nM; under setting [4], 349 nM; under setting [5], 351 nM. In addition, the viability, T/C was 87% under setting [6]; 89.8% under setting [7]; 58.3% under setting [8]; 6.64% under setting [9]; 0.94% under setting [10]; 1.6% under setting [11]. Also, the viability, T/C under setting [12] was 84.8%; the viability, T/C under setting [13] is 82.5%; the viability, T/C under setting [14] was 58.3%; the viability, T/C under setting [15] is 6.48%; the viability, T/C under setting [16] was 0.61%; the viability, T/C under setting [17] was 2.51%. The viability, T/C was 81.9% under setting [18]; 73.8% under setting [19]; 62.9% under setting [20]; 3.27% under setting [21]; 0.86% under setting [22]; 2.01% under setting [23]. The viability, T/C reads like this: under setting [24], 77.7%; under setting [25], 74.8%; under setting [26], 54.4%; under setting [27], 2.38%; under setting [28], 1.27%; under setting [29], 3.59%. Moreover, the viability, T/C under setting [30] was 80.8%; the viability, T/C under setting [31] is 68.8%; the viability, T/C under setting [32] is 54.8%; the viability, T/C under setting [33] was 2.24%; the viability, T/C under setting [34] is 1.87%; the viability, T/C under setting [35] is 3.7%.
As for `O=C(c1cc(Cc2n[nH]c(=O)c3ccccc23)ccc1F)N1CCN(C(=O)C2CC2)CC1`, the viability, T/C is, setting by setting: (compound 0.0316 µM) 100% and 98.6% and 97.2%; (compound 0.1 µM) 103% and 96.9% and 88.5%; (compound 0.316 µM) 95.3% and 93.3% and 86.6%; (compound 1 µM) 102% and 93.8% and 87.4%; (compound 3.16 µM) 94.5% and 91.3% and 93.1%; (compound 10 µM) 74.8% and 82.6% and 69.8%. Also, the concentration for half-maximal inhibition (IC50) (curve of compound) is above 10000 nM.
Take `CC(C)CC(NC(=O)C(Cc1ccccc1)NC(=O)c1cnccn1)B(O)O` (centres undefined): the viability, T/C is 105% and 95.7% and 87.9% (compound 0.000949 µM); 101% and 97.8% and 87.1% (compound 0.003 µM); 13.2% and 10.6% and 2.65% (compound 0.00949 µM); 1.02% and 0.36% and 1.1% (compound 0.03 µM); 0.22% and 0.29% and 0.24% (compound 0.0949 µM); 0.28% and 0.29% and 0.34% (compound 0.3 µM). In addition, for the setting “curve of compound”, the IC50 is 5.87 nM and 5.61 nM and 4.98 nM.
